According to PMC5076878 (Bioorganic & medicinal chemistry letters, 2016):
Values joined by “and” are separate entries in the source; they are usually repeats but may differ in a detail not shown here. Identical values can stand only once.

biological target: T1, human LAT1 (Homo sapiens, UniProt Q01650); assay: not given; type: cell-based; conditions: compound at 200 μM; pre-loaded HEK-hLAT1 cells; at least triplicate
T1 sequence (Q01650 whole entry): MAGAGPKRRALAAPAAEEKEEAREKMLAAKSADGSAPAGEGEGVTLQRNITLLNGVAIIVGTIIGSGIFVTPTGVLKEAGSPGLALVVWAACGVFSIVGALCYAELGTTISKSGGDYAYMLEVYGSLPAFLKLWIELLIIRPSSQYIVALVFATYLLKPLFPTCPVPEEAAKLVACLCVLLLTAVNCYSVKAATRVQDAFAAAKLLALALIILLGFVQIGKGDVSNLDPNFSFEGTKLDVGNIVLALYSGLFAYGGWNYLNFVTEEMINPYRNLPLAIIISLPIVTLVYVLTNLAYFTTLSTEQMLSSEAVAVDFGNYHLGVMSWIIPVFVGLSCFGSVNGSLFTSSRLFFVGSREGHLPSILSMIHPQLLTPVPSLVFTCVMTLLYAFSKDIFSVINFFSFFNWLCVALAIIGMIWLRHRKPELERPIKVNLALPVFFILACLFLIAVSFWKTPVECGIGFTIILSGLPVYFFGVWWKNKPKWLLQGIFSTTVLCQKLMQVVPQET
T1 sequence (P08195 102-630 partner): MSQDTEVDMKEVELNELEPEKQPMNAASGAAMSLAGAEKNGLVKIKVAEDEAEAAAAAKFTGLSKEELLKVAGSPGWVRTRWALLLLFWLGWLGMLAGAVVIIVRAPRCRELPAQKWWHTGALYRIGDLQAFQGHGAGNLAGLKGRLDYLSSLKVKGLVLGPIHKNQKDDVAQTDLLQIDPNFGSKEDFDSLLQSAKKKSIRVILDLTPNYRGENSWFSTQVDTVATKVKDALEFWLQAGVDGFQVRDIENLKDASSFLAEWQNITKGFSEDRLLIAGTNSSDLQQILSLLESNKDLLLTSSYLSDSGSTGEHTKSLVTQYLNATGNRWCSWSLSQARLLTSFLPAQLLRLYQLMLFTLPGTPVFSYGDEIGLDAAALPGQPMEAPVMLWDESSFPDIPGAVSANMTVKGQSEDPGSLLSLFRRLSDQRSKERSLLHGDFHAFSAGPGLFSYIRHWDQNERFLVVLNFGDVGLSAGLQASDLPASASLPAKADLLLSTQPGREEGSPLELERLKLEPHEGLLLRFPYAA

Structure (SMILES)	Efflux Rate of [3H]-gabapentin
N[C@@H](Cc1ccccc1)C(=O)O [Compound 1a, phenylalanine, reference compound]	3.6 fmol/min and 3.6 ± 0.7 fmol/min
N[C@@H](Cc1c[nH]c2ccccc12)C(=O)O [Compound 1d, tryptophan, reference compound]	1.6 ± 0.3 fmol/min
CC[C@H](C)[C@H](N)C(=O)O [Compound 1f, isoleucine, reference compound]	2.5 ± 0.1 fmol/min
CSCC[C@H](N)C(=O)O [Compound 1g, methionine, reference compound]	2.4 ± 0.1 fmol/min
N=C(N)NCCC[C@H](N)C(=O)O [Compound 1i, reference compound]	0.75 ± 0.1 fmol/min
CONC(=O)[C@@H](N)CC(C)C.Cl [Compound 9e]	2.1 fmol/min and 2.1 ± 0.2 fmol/min
CS(=O)(=O)NC(=O)[C@@H](N)Cc1ccccc1 [Compound 10a]	0.61 ± 0.06 fmol/min
CS(=O)(=O)NC(=O)[C@@H](N)Cc1ccc(O)cc1 [Compound 10b]	0.63 ± 0.03 fmol/min
N[C@@H](Cc1ccccc1)c1nnn[nH]1 [Compound 11]	0.61 ± 0.01 fmol/min
N[C@@H](Cc1ccc(O)cc1)C(=O)NO [Compound 12b]	1.0 ± 0.1 fmol/min
N[C@@H](Cc1c[nH]c2ccccc12)C(=O)NO [Compound 12d]	1.0 ± 0.1 fmol/min
CC(C)C[C@H](N)C(=O)NO.Cl [Compound 12e]	1.5 fmol/min and 1.5 ± 0.1 fmol/min
CC[C@H](C)[C@H](N)C(=O)NO.Cl [Compound 12f]	1.5 fmol/min and 1.5 ± 0.2 fmol/min
CSCC[C@H](N)C(=O)NO.Cl [Compound 12g]	1.1 ± 0.01 fmol/min
NCC(=O)NO [Compound 12h]	0.70 ± 0.1 fmol/min
CC(C)C[C@H](N)C(N)=O.Cl [Compound 13e, leucinamide]	0.69 fmol/min and 0.69 ± 0.01 fmol/min

biological target: T1, human LAT1; assay: cis-inhibition assay: inhibition of [3H]-gabapentin uptake into HEK-hLAT1 cells; type: cell-based; conditions: read-out: % Inhibition of [3H]-gabapentin uptake

Structure (SMILES)	inhibition at 200 µM
N[C@@H](Cc1ccccc1)C(=O)O [Compound 1a, phenylalanine, reference compound]	85 ± 0.6%
N[C@@H](Cc1ccc(O)cc1)C(=O)O [Compound 1b, tyrosine]	68 ± 0.5%
N[C@@H](Cc1c[nH]c2ccccc12)C(=O)O [Compound 1d, tryptophan, reference compound]	79 ± 0.6%
N=C(N)NCCC[C@H](N)C(=O)O [Compound 1i, reference compound]	49 ± 2%
